Legend:
Test in all cases: Test E pre-/postemergence herbicide test
guineagrass = type: in vivo, Panicum maximum
How it was run: (§1)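 Herbicidal effect scored visually, 0–100 scale, versus controls. Treatments: preemergence on planted seed; postemergence on 2–18 cm seedlings. Greenhouse, 12 to 14 days.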

large crabgrass = type: in vivo, Digitaria sanguinalis
How it was run: as §1

Italian ryegrass = type: in vivo, Lolium multiflorum
How it was run: as §1

tropical spiderwort = type: in vivo, Commelina benghalensis
How it was run: as §1

quackgrass = type: in vivo, Elytrigia repens
How it was run: as §1

common chickweed = type: in vivo, Stellaria media
Excerpt: Seeds of plant species selected from bipinnate beggarticks (Bidens bipinnata L.), hairy beggarticks (Bidens radiata Thuill.), bermudagrass (Cynodon dactylon (L.) Pers.), Surinam grass (Urochloa decumbens (Staph) R. D. Webster, previously named Brachiaria decumbens Stapf), large crabgrass (Digitaria sanguinalis (L.) Scop.), green foxtail (Setaria viridis (L.) P. Beauv.), goosegrass (Eleusine indica (L.) Gaertn.), johnsongrass (Sorghum halepense (L.) Pers.), kochia (Kochia scoparia (L.) Schrad.), pitted morningglory (Ipomoea lacunosa L.), purple nutsedge (Cyperus rotundus L.), common ragweed (Ambrosia elatior L.), mustard (Brassica nigra (L.) W. D. J. Koch), guineagrass (Panicum maximum Jacq.), dallisgrass (Paspalum dilatatum Poir.), barnyardgrass (Echinochloa crus-galli (L). P. Beauv.), southern sandbur (Cenchrus echinatus L.), common sowthistle (Sonchus oleraceous L.), prickly sida (Sida spinosa L.), Italian ryegrass (Lolium multiflorum Lam.), common purslane (Portulaca oleracea L.), broadleaf signalgrass (Brachiaria platyphylla (Griseb.) Nash), common groundsel (Senecio vulgaris L.), common chickweed (Stellaria media (L.) Vill/Cyr.), tropical spiderwort (Commelina benghalensis L.), annual bluegrass (Poa annua L.), downy bromegrass (Bromus tectorum L.), itchgrass (Rottboellia cochinchinensis (L.) L.f.), quackgrass (Elytrigia repens (L.) Nevski), Canada horseweed (Erigeron Canadensis L.), field bindweed (Convolvulus arvensis L.), spotted spurge (Euphorbia maculata L.), common mallow (Malva sylvestris (=s silvestris) L.), and Russian thistle (Salsola kali L. ssp. Ruthenica (Iljin) Soo) were planted and treated preemergence with test chemicals formulated in a non-phytotoxic solvent mixture which included a surfactant.
At the same time, plants selected from these weed species were treated with postemergence applications of some of the test chemicals formulated in the same manner. Plants ranged in height from 2 to 18 cm (1- to 4-leaf stage) for postemergence treatments. Treated plants and controls were maintained in a greenhouse for 12 to 14 days, after which time all species were compared to controls and visually evaluated. Plant response ratings, summarized in Table E, are based on a scale of 0 to 100 where 0 is no effect and 100 is complete control. A dash (-) response means no test result.

green foxtail = type: in vivo, Setaria viridis
How it was run: as §1

itchgrass = type: in vivo, Rottboellia cochinchinensis
How it was run: as §1

mustard = type: in vivo, Brassica nigra
How it was run: as §1

prickly sida = type: in vivo, Sida spinosa; settings: Preemergence
How it was run: as §1

[1] = Postemergence, 250 g ai/ha, scale 0 to 100
[2] = Preemergence, 62 g ai/ha, scale 0 to 100
[3] = Preemergence, 125 g ai/ha, scale 0 (no effect) to 100 (complete control)
[4] = Preemergence, 250 g ai/ha, scale 0 (no effect) to 100 (complete control)
[5] = Preemergence, 500 g ai/ha, scale 0 (no effect) to 100 (complete control)
[6] = postemergence, 125 g ai/ha, scale 0 to 100
[7] = postemergence, 62 g ai/ha, scale 0 to 100
[8] = Preemergence, 125 g ai/ha, scale 0 to 100
[9] = Postemergence, 500 g ai/ha, scale 0 to 100

CCNC(=O)c1ccc(F)c(NC(=O)c2cc(C(C)(C)C)nn2CC)c1 [Compound 2, 3-(1,1-dimethylethyl)-1-ethyl-N-[5-[(ethylamino)carbonyl]-2-fluorophenyl]-1H-pyrazole-5-carboxamide]
Plant response rating, Guineagrass (guineagrass; [1]): 95
Plant response rating, Guineagrass (guineagrass; [2]): 70
Plant response rating, Guineagrass (guineagrass; [3]): 80
Plant response rating, Guineagrass (guineagrass; [4]): 100
Plant response rating, Guineagrass (guineagrass; [5]): 100
Plant response rating, Guineagrass (guineagrass; [6]): 75
Plant response rating, Guineagrass (guineagrass; [7]): 30
Plant response rating, Crabgrass, Large (large crabgrass; [1]): 98
Plant response rating, Crabgrass, Large (large crabgrass; [2]): 70
Plant response rating, Crabgrass, Large (large crabgrass; [3]): 80
Plant response rating, Crabgrass, Large (large crabgrass; [4]): 100
Plant response rating, Crabgrass, Large (large crabgrass; [5]): 100
Plant response rating, Crabgrass, Large (large crabgrass; [6]): 95
Plant response rating, Crabgrass, Large (large crabgrass; [7]): 90
Plant response rating, Ryegrass, Italian (Italian ryegrass; [1]): 98
Plant response rating, Ryegrass, Italian (Italian ryegrass; [2]): 60
Plant response rating, Ryegrass, Italian (Italian ryegrass; [3]): 80
Plant response rating, Ryegrass, Italian (Italian ryegrass; [4]): 95
Plant response rating, Ryegrass, Italian (Italian ryegrass; [5]): 95
Plant response rating, Ryegrass, Italian (Italian ryegrass; [6]): 90
Plant response rating, Ryegrass, Italian (Italian ryegrass; [7]): 80
Plant response rating, Spiderwort (tropical spiderwort; [1]): 70
Plant response rating, Spiderwort (tropical spiderwort; [2]): 20
Plant response rating, Spiderwort (tropical spiderwort; [3]): 60
Plant response rating, Spiderwort (tropical spiderwort; [4]): 70
Plant response rating, Spiderwort (tropical spiderwort; [5]): 100
Plant response rating, Spiderwort (tropical spiderwort; [7]): 20
Plant response rating, Quackgrass (quackgrass; [1]): 95
Plant response rating, Quackgrass (quackgrass; [2]): 30
Plant response rating, Quackgrass (quackgrass; [3]): 60
Plant response rating, Quackgrass (quackgrass; [4]): 70
Plant response rating, Quackgrass (quackgrass; [5]): 80
Plant response rating, Quackgrass (quackgrass; [6]): 90
Plant response rating, Quackgrass (quackgrass; [7]): 70
Plant response rating, Chickweed (common chickweed; [2]): 90
Plant response rating, Chickweed (common chickweed; [3]): 90
Plant response rating, Chickweed (common chickweed; [4]): 95
Plant response rating, Chickweed (common chickweed; [5]): 95
Plant response rating, Chickweed (common chickweed; [6]): 100
Plant response rating, Foxtail, Green (green foxtail; [1]): 95
Plant response rating, Foxtail, Green (green foxtail; [2]): 40
Plant response rating, Foxtail, Green (green foxtail; [3]): 80
Plant response rating, Foxtail, Green (green foxtail; [4]): 100
Plant response rating, Foxtail, Green (green foxtail; [5]): 100
Plant response rating, Foxtail, Green (green foxtail; [6]): 90
Plant response rating, Foxtail, Green (green foxtail; [7]): 60
Plant response rating, Itchgrass (itchgrass; [1]): 90
Plant response rating, Itchgrass (itchgrass; [2]): 60
Plant response rating, Itchgrass (itchgrass; [3]): 70
Plant response rating, Itchgrass (itchgrass; [4]): 90
Plant response rating, Itchgrass (itchgrass; [5]): 95
Plant response rating, Itchgrass (itchgrass; [6]): 90
Plant response rating, Itchgrass (itchgrass; [7]): 70
Plant response rating, Black Mustard (mustard; [1]): 100
Plant response rating, Black Mustard (mustard; [2]): 60
Plant response rating, Black Mustard (mustard; [3]): 100
Plant response rating, Black Mustard (mustard; [4]): 100
Plant response rating, Black Mustard (mustard; [5]): 100
Plant response rating, Black Mustard (mustard; [6]): 95
Plant response rating, Black Mustard (mustard; [7]): 90

CCc1nn(C(C)(C)C)nc1C(=O)Nc1cccc(C(=S)N(C)C)c1 [Compound 395]
Plant response rating, Guineagrass (guineagrass; [2]): 80
Plant response rating, Guineagrass (guineagrass; [8]): 100
Plant response rating, Guineagrass (guineagrass; [4]): 100
Plant response rating, Guineagrass (guineagrass; [5]): 100
Plant response rating, Crabgrass, Large (large crabgrass; [2]): 80
Plant response rating, Crabgrass, Large (large crabgrass; [8]): 100
Plant response rating, Crabgrass, Large (large crabgrass; [4]): 100
Plant response rating, Crabgrass, Large (large crabgrass; [5]): 100
Plant response rating, Prickly Sida (prickly sida; 62 g ai/ha, scale 0 to 100): 60
Plant response rating, Prickly Sida (prickly sida; 125 g ai/ha, scale 0 to 100): 95
Plant response rating, Prickly Sida (prickly sida; 250 g ai/ha, scale 0 (no effect) to 100 (complete control)): 95
Plant response rating, Prickly Sida (prickly sida; 500 g ai/ha, scale 0 (no effect) to 100 (complete control)): 95
Plant response rating, Ryegrass, Italian (Italian ryegrass; [2]): 20
Plant response rating, Ryegrass, Italian (Italian ryegrass; [8]): 80
Plant response rating, Ryegrass, Italian (Italian ryegrass; [4]): 90
Plant response rating, Ryegrass, Italian (Italian ryegrass; [5]): 95
Plant response rating, Spiderwort (tropical spiderwort; [4]): 60
Plant response rating, Spiderwort (tropical spiderwort; [5]): 90
Plant response rating, Quackgrass (quackgrass; [2]): 60
Plant response rating, Quackgrass (quackgrass; [8]): 80
Plant response rating, Quackgrass (quackgrass; [4]): 85
Plant response rating, Quackgrass (quackgrass; [5]): 90
Plant response rating, Chickweed (common chickweed; [8]): 90
Plant response rating, Chickweed (common chickweed; [4]): 100
Plant response rating, Chickweed (common chickweed; [5]): 100
Plant response rating, Foxtail, Green (green foxtail; [2]): 10
Plant response rating, Foxtail, Green (green foxtail; [8]): 40
Plant response rating, Foxtail, Green (green foxtail; [4]): 80
Plant response rating, Foxtail, Green (green foxtail; [5]): 90
Plant response rating, Itchgrass (itchgrass; [2]): 20
Plant response rating, Itchgrass (itchgrass; [8]): 60
Plant response rating, Itchgrass (itchgrass; [4]): 60
Plant response rating, Itchgrass (itchgrass; [5]): 80
Plant response rating, Black Mustard (mustard; [2]): 40
Plant response rating, Black Mustard (mustard; [8]): 60
Plant response rating, Black Mustard (mustard; [4]): 90
Plant response rating, Black Mustard (mustard; [5]): 95

CCn1nc(C(C)(C)C)cc1C(=O)Nc1cccc(C(N)=O)n1 [Compound 162, 6-[[[3-(1,1-dimethylethyl)-1-ethyl-1H-pyrazol-5-yl]carbonyl]amino]-2-pyridinecarboxamide]
Plant response rating, Guineagrass (guineagrass; [9]): 98
Plant response rating, Guineagrass (guineagrass; [1]): 90
Plant response rating, Guineagrass (guineagrass; [2]): 50
Plant response rating, Guineagrass (guineagrass; [8]): 100
Plant response rating, Guineagrass (guineagrass; [4]): 100
Plant response rating, Guineagrass (guineagrass; [5]): 100
Plant response rating, Guineagrass (guineagrass; [6]): 75
Plant response rating, Guineagrass (guineagrass; [7]): 35
Plant response rating, Crabgrass, Large (large crabgrass; [9]): 95
Plant response rating, Crabgrass, Large (large crabgrass; [1]): 90
Plant response rating, Crabgrass, Large (large crabgrass; [2]): 50
Plant response rating, Crabgrass, Large (large crabgrass; [8]): 90
Plant response rating, Crabgrass, Large (large crabgrass; [4]): 95
Plant response rating, Crabgrass, Large (large crabgrass; [5]): 100
Plant response rating, Crabgrass, Large (large crabgrass; [6]): 50
Plant response rating, Crabgrass, Large (large crabgrass; [7]): 30
Plant response rating, Ryegrass, Italian (Italian ryegrass; [9]): 100
Plant response rating, Ryegrass, Italian (Italian ryegrass; [1]): 98
Plant response rating, Ryegrass, Italian (Italian ryegrass; [2]): 50
Plant response rating, Ryegrass, Italian (Italian ryegrass; [8]): 95
Plant response rating, Ryegrass, Italian (Italian ryegrass; [4]): 95
Plant response rating, Ryegrass, Italian (Italian ryegrass; [5]): 95
Plant response rating, Ryegrass, Italian (Italian ryegrass; [6]): 95
Plant response rating, Ryegrass, Italian (Italian ryegrass; [7]): 50
Plant response rating, Spiderwort (tropical spiderwort; [9]): 65
Plant response rating, Spiderwort (tropical spiderwort; [1]): 60
Plant response rating, Spiderwort (tropical spiderwort; [2]): 20
Plant response rating, Spiderwort (tropical spiderwort; [8]): 40
Plant response rating, Spiderwort (tropical spiderwort; [4]): 75
Plant response rating, Spiderwort (tropical spiderwort; [5]): 75
Plant response rating, Spiderwort (tropical spiderwort; [6]): 10
Plant response rating, Spiderwort (tropical spiderwort; [7]): 0
Plant response rating, Quackgrass (quackgrass; [9]): 95
Plant response rating, Quackgrass (quackgrass; [1]): 90
Plant response rating, Quackgrass (quackgrass; [2]): 20
Plant response rating, Quackgrass (quackgrass; [8]): 60
Plant response rating, Quackgrass (quackgrass; [4]): 75
Plant response rating, Quackgrass (quackgrass; [5]): 90
Plant response rating, Quackgrass (quackgrass; [6]): 70
Plant response rating, Quackgrass (quackgrass; [7]): 50
Plant response rating, Chickweed (common chickweed; [1]): 100
Plant response rating, Chickweed (common chickweed; [8]): 95
Plant response rating, Chickweed (common chickweed; [4]): 95
Plant response rating, Chickweed (common chickweed; [5]): 95
Plant response rating, Chickweed (common chickweed; [6]): 100
Plant response rating, Chickweed (common chickweed; [7]): 80
Plant response rating, Foxtail, Green (green foxtail; [9]): 95
Plant response rating, Foxtail, Green (green foxtail; [1]): 85
Plant response rating, Foxtail, Green (green foxtail; [2]): 30
Plant response rating, Foxtail, Green (green foxtail; [8]): 85
Plant response rating, Foxtail, Green (green foxtail; [4]): 100
Plant response rating, Foxtail, Green (green foxtail; [5]): 100
Plant response rating, Foxtail, Green (green foxtail; [6]): 50
Plant response rating, Foxtail, Green (green foxtail; [7]): 30
Plant response rating, Itchgrass (itchgrass; [9]): 95
Plant response rating, Itchgrass (itchgrass; [1]): 95
Plant response rating, Itchgrass (itchgrass; [2]): 40
Plant response rating, Itchgrass (itchgrass; [8]): 95
Plant response rating, Itchgrass (itchgrass; [4]): 95
Plant response rating, Itchgrass (itchgrass; [5]): 100
Plant response rating, Itchgrass (itchgrass; [6]): 85
Plant response rating, Itchgrass (itchgrass; [7]): 75
Plant response rating, Black Mustard (mustard; [9]): 95
Plant response rating, Black Mustard (mustard; [1]): 90
Plant response rating, Black Mustard (mustard; [2]): 20
Plant response rating, Black Mustard (mustard; [8]): 50
Plant response rating, Black Mustard (mustard; [4]): 80
Plant response rating, Black Mustard (mustard; [5]): 100
Plant response rating, Black Mustard (mustard; [6]): 75
Plant response rating, Black Mustard (mustard; [7]): 60
